# Source: publication PMC8968952, “Modulation of ERCC1-XPF Heterodimerization Inhibition via Structural Modification of Small Molecule Inhibitor Side-Chains” (Frontiers in Oncology, 2022)
# Experiments:
# [1] = test system: ERCC1 or XPF levels in A549 cells; assay: Western blot of ERCC1 and XPF protein levels (PLA control); type: cell-based, human; conditions: 2 µM, 24 h
# Description: page 1: Supplementary Material […] Supplementary Figure 1. ERCC1-XPF mediated cleavage of the stem-loop DNA substrate, in which the FAM signal is quenched, releases the fluorescently tagged octanucleotide. Triplicate measurements of the control (DMSO) and the effect of 10 μM of compounds 4 and 6 on the incision activity is shown. 2 PLA Control Experiments Supplementary Figure 2. A549 cells were seeded in 6-well culture dishes (Thermo Fishes Scientific) at a density of 0.3 X 10^6 cells/well in a final volume of 3 ml. […] The chambers were incubated for 24 h and then washed with PBS and the cells were solubilized with RIPA buffer in the presence of protease inhibitor cocktail (Cell Signaling Technology) plus 2 mM EDTA. […] EpiGentek), XPF (LS- C173159, 1:1000; LifeSpan BioSciences, Seattle, WA) and B-Actin (sc-47778, 1:1000; Santa Cruz) primary antibodies followed by secondary anti-mouse or anti-rabbit secondary HRP-conjugated secondary antibodies. ECL chemiluminescent substrate (Promega) was used to detect the proteins. 3 Cytotoxicity Analysis Supplementary Figure 3. Cytotoxicity assay using colony forming assay 4 HCT-116 Derived XPF Knockout Cells For CRISPR deletion of XPF from HCT-116 cells, the pSpCas9(BB)-2A-GFP (pX458) vector (Addgene plasmid # 48138) was used. The short guide sequence to target XPF exon one was: 5'- [NT] 3' and target XPF exon eight was: 5'- [NT]3'. […]
# HCT-116 cells = assay: Clonogenic survival assay, UV treatment; type: cell-based, human
# Description: HCT-116 cells (100–800 cells depending on the UV dose) were plated in triplicate in 60-mm Petri dishes in DMEM/F12 medium. Following overnight attachment of the cells in a humidified atmosphere containing 5% CO2 at 37°C, the cells were treated with 0.5 μM compound 6 or 10 in DMSO (as described in section 2.7) for 4 h before the medium was removed, and the cells exposed to increasing doses (0–10 J/m^2) of UV-C radiation. The cells were then cultured for a further 24 h in the presence of inhibitor and then for an additional 9 days in the absence of inhibitor to allow for colony formation. Colonies were stained with crystal violet and counted using a Colcount instrument (Oxford Optronix, Abingdon UK) to facilitate determination of plating efficiency and surviving fraction. Data were plotted using GraphPad Prism version 5.04 software.
# CYP3A4-M = CYP3A4-M (Homo sapiens, UniProt P08684); assay: Cytochrome P450 inhibition, CYP3A4-M; type: in vitro ADME
# Description: (§1) The ADME (absorption, distribution, metabolism, and excretion) profile of our lead compound 6 was determined by standard protocols carried out by WuXi AppTec (Shanghai) Co (https://www.wuxiapptec.com/). The following tests were conducted: distribution coefficient (log D at pH 7.4), aqueous solubility (Kinetic), metabolic stability in human liver microsomes and cryopreserved human hepatocytes, bidirectional permeability in Caco-2 cells, serum protein binding, and cytochrome P450 (CYP) inhibition (CYP1A2, CYP2C9, CYP2C19, CYP2D6, and CYP3A4-M).
# CYP1A2 = molecular target: T1, CYP1A2 (Homo sapiens, UniProt P05177); assay: Cytochrome P450 inhibition, CYP1A2; type: in vitro ADME
# T1 sequence (P05177 1-516): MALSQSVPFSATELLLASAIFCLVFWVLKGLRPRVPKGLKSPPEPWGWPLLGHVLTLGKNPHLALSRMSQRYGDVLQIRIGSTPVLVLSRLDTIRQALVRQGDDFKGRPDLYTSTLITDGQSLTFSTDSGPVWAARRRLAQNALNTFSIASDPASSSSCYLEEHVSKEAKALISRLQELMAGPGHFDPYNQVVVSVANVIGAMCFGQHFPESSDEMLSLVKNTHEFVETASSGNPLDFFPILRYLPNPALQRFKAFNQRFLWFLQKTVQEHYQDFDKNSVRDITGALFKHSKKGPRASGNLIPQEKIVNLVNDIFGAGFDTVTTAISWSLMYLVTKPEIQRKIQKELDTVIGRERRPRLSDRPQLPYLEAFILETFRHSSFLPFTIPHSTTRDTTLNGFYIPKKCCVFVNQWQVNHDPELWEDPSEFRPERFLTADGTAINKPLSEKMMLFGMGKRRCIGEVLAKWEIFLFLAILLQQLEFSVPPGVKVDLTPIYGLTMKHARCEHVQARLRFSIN
# Description: as §1
# Chain of CYP3A4-M (P08684 whole entry): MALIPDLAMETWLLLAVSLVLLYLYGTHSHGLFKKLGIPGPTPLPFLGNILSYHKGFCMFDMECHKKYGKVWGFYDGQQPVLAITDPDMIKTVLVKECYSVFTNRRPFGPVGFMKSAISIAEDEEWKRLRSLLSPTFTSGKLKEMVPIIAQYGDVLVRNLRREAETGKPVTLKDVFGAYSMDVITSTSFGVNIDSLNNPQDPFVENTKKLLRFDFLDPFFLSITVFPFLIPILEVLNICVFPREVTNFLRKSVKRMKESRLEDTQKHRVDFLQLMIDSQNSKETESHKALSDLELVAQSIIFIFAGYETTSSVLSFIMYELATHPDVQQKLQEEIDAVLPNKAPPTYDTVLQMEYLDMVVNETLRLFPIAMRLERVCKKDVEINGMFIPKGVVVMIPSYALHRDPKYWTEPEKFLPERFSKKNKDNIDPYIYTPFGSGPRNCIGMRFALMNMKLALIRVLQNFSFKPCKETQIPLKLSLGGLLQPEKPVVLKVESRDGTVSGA
compound,measurement,setting,value
COc1ccc2nc3cc(Cl)ccc3c(Nc3ccc(O)c(CN4CCN(CCN(C(C)C)C(C)C)CC4)c3)c2c1 [Compound 6],levels of ERCC1 or XPF vs untreated cells,[1],no significant differences
same,sensitization to UVC radiation (in words),HCT-116 cells; 0.5 μM,sensitized cells to UVC radiation
same,cell survival after UVC,"HCT-116 cells; 0.5 μM compound, 4 J/m^2 UVC",< 50%
same,CYP3A4-M inhibition grade (in words),CYP3A4-M,moderate inhibitor
same,IC50,CYP3A4-M,1.9 µM
same,CYP1A2 inhibition grade (in words),CYP1A2,moderate inhibitor
same,IC50,CYP1A2,6.51 µM
